According to patent US20090215778A1, “Alpha-substituted Arylmethyl Piperazine Pyrazolo [1,5-alpha]Pyrimidine Amide Derivatives” (priority 2007, published 2009):

Assays:
[1] = target: T1, HIV Env six-helix bundle (6HB) structure (Human immunodeficiency virus type 1 group M subtype B, UniProt P04579); assay: Six-helix bundle (6HB) assay; assay type: cell-based, HIV-1 (strain RF)
T1 construct: H9 cells chronically infected with HIV-1 (H9/HIV-1RF); endogenous in cells; host or cells: H9 cells chronically infected with HIV-1 strain RF (Env is made from the virus in the infected cells, not by transfection)
T1 sequence (P04579 32-519): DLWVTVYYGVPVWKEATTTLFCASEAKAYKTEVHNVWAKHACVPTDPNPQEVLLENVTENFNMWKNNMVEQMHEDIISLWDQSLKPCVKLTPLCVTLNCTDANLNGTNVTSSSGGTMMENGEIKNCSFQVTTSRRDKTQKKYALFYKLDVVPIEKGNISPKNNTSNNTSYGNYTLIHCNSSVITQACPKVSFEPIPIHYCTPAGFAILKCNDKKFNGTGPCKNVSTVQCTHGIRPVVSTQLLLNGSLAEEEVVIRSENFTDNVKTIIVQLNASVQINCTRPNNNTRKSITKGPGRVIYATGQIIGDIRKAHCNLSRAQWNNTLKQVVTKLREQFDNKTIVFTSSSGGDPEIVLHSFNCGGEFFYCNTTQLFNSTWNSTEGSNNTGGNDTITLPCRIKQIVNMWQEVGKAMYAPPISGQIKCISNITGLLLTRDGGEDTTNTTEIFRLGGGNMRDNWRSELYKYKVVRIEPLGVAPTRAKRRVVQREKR
T1 sequence (P04579 520-865): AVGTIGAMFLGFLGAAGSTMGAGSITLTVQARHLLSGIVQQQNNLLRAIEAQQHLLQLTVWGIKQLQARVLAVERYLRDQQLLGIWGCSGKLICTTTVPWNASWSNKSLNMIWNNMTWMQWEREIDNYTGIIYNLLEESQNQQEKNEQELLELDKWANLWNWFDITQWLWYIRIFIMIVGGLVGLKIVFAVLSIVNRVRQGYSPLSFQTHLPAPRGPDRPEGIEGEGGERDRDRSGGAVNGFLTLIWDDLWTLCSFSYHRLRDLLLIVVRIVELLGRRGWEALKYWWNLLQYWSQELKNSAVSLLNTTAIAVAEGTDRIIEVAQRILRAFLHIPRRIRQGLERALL
Method: 3×10^6H9 cells were incubated with 1 mL of HIV-1 (strain RF) supplemented with 40 μg/mL of DEAE-dextran. Virus and cells were incubated together at 37° C. for 2-4 hours with sporadic shaking to resuspend cells. 10 mL of media (RPMI 1640 containing 10% fetal bovine serum and supplemented with 50 μg/mL gentamicin) was then added and the virus-cell coculture was incubated at 37° C. in a humidified 5% CO2 incubator. 3 days post-infection and every 2-3 days thereafter, the infected H9/HIV-1RF cells were centrifuged, the supernatant was removed, and the cells were resuspended at a density of 0.3×10^6 cells/mL in media (RPMI 1640 containing 10% fetal bovine serum and supplemented with 50 μg/mL gentamicin). Chronically infected H9/HIV-1RF cells were used in experiments starting 12-15 days after infection and up to 40 days post-infection.
This assay determines the effect of compounds on conformational changes in HIV envelope glycoprotein (Env) that are required in order for Env to mediate the fusion of the viral and cellular membranes during virus entry and infection. Specifically, this assay measures the effect of compounds on the formation of the HIV Env six-helix bundle (6HB) structure.
H9 cells chronically infected with HIV-1 (H9/HIV-1RF) were resuspended in Stain/Wash Buffer (1% bovine serum albumin, 0.1% sodium azide in phosphate-buffered saline) and aliquoted at 2.5×10^5 cells per well into 96-well V-bottom plates containing various concentrations of test compounds. Cells and compounds were incubated for 30 minutes at 37° C. Recombinant soluble CD4 (sCD4) was then added to a final concentration of 1 μg/mL. Negative control wells contained no sCD4 and no test compound. Positive control wells contained sCD4 but no test compound. The plate was incubated for 1 hour at 37° C. to allow the sCD4 to bind to HIV Env and induce conformational changes in the Env protein. Antibody that is specific for the HIV Env six-helix bundle conformation was then added (1 μL polyclonal rabbit serum per well), and the plate was incubated for an additional 1 hour at 37° C. to permit antibody binding. The cells were then washed once with Stain/Wash Buffer to remove compound and excess antibody. The cells were resuspended in Stain/Wash Buffer containing PE-labeled anti-rabbit secondary antibody (KPL) at 0.25 μg per well. The cells were incubated for 45 min at 4° C. to permit secondary antibody binding. Fluorescence was detected using a BD FACSArray™ bioanalyzer. Compounds that inhibited Env conformational changes were identified as those that decreased primary antibody binding to the six-helix bundle epitope resulting in a decrease in fluorescence signal.

HIV-1, NL4-3 strain = assay: Virus infection assay (virus entry and single-cycle infection); assay type: cell-based; settings: Human immunodeficiency virus 1, NL43, TZM-b1, read-out: Nl4
Method: TZM-b1 indicator cells were propagated in Dulbecco's Modified Eagle's Medium (DMEM) containing 10% fetal bovine serum (FBS, heat-inactivated) and supplemented with gentamicin (50 ug/mL).
This assay determines the effects of compounds on virus entry and single-cycle infection of cells. In this assay, virus (HIV-1, NL4-3 strain) is added to indicator cells expressing the CD4 receptor and both the CXCR4 and CCR5 co-receptor. The cells contain both a lac Z and a luciferase reporter gene under control of the viral LTR transcription promoter. The cells and virus are incubated together in the presence of various concentrations of test compounds. Successful infection of the cells by the virus permits activation of the reporter gene by the viral Tat transcription factor. The resulting beta-galactosidase or luciferase activity is quantitated using a chemiluminescent substrate and a luminescent plate reader.
Specifically, one day prior to infection, 1.5×10^4 TZM-b1 indicator cells were added to each well of a 96-well microtiter plate. On the day of the experiment, virus (MOI 0.01) in 50 μL of medium (Dulbecco's Modified Eagle's Medium) supplemented with DEAE-dextran at a final concentration of 80 μg/mL was added to cells along with various concentrations of test compound in 50 μL of Dulbecco's Modified Eagle's Medium. Control wells had virus alone. Following a 4 hr incubation at 37° C., complete media [DMEM supplemented with 10% fetal bovine serum (FBS, heat-inactivated) and gentamicin (50 ug/mL)] was added. One day post-infection the level of virus infection was quantitated by detection of β-galactosidase expression using the Gal-Screen system (Applied Biosystems).

Row | SMILES | IC50 [1] [nM] | IC50 (HIV-1, NL4-3 strain) [nM]
1 | COc1ccc(-c2nc3c(C(=O)N4CCN(C(CO)c5cccc(NC(C)=O)c5)C[C@H]4C)cnn3c(C(F)(F)F)c2C)cc1 (stereo partly drawn) [acetamide, N-[3-[2-hydroxy-1-[(3R)-4-[[5-(4-methoxyphenyl)-6-methyl-7-(trifluoromethyl)pyrazolo[1,5-α]pyrimidin-3-yl]carbonyl]-3-methyl-1-piperazinyl]ethyl]phenyl]-] | < 1000 | < 1000
2 | COc1ccc(-c2nc3c(C(=O)N4CCN([C@@H](C)c5cccc(NC(C)=O)c5)C[C@H]4C)cnn3c(C(F)(F)F)c2C)cc1 [acetamide, N-[3-[(1S)-1-[(3R)-4-[[5-(4-methoxyphenyl)-6-methyl-7-(trifluoromethyl)pyrazolo[1,5-α]pyrimidin-3-yl]carbonyl]-3-methyl-1-piperazinyl]ethyl]phenyl]-] | < 1000 | < 1000
3 | COc1ccc(-c2nc3c(C(=O)N4CCN([C@@H](C)c5ccc(NC(C)=O)cc5)C[C@H]4C)cnn3c(C(F)(F)F)c2C)cc1 [acetamide, N-[4-[(1S)-1-[(3R)-4-[[5-(4-methoxyphenyl)-6-methyl-7-(trifluoromethyl)pyrazolo[1,5-α]pyrimidin-3-yl]carbonyl]-3-methyl-1-piperazinyl]ethyl]phenyl]-] | > 10100 | 1100 to 10000
4 | COc1ccc(-c2nc3c(C(=O)N4CCN(C(CO)c5cccc(CNC(C)=O)c5)C[C@H]4C)cnn3c(C(F)(F)F)c2C)cc1 (stereo partly drawn) [acetamide, N-[[3-[2-hydroxy-1-[(3R)-4-[[5-(4-methoxyphenyl)-6-methyl-7-(trifluoromethyl)pyrazolo[1,5-α]pyrimidin-3-yl]carbonyl]-3-methyl-1-piperazinyl]ethyl]phenyl]methyl]-] | > 10100 | > 10100
5 | COc1ccc(-c2nc3c(C(=O)N4CCN(C(CO)c5cccc(C(N)=O)c5)C[C@H]4C)cnn3c(C(F)(F)F)c2C)cc1 (stereo partly drawn) [benzamide, 3-[2-hydroxy-1-[(3R)-4-[[5-(4-methoxyphenyl)-6-methyl-7-(trifluoromethyl)pyrazolo[1,5-α]pyrimidin-3-yl]carbonyl]-3-methyl-1-piperazinyl]ethyl]-] | < 1000 | < 1000
6 | COc1ccc(-c2nc3c(C(=O)N4CCN(C(CO)c5cccc(S(N)(=O)=O)c5)C[C@H]4C)cnn3c(C(F)(F)F)c2C)cc1 (stereo partly drawn) [benzenesulfonamide, 3-[2-hydroxy-1-[(3R)-4-[[5-(4-methoxyphenyl)-6-methyl-7-(trifluoromethyl)pyrazolo[1,5-α]pyrimidin-3-yl]carbonyl]-3-methyl-1-piperazinyl]ethyl]-] | > 10100 | > 10100
7 | COc1ccc(-c2nc3c(C(=O)N4CCN(C(CO)c5ccccc5C#N)C[C@H]4C)cnn3c(C(F)(F)F)c2C)cc1 (stereo partly drawn) [benzonitrile, 2-[2-hydroxy-1-[(3R)-4-[[5-(4-methoxyphenyl)-6-methyl-7-(trifluoromethyl)pyrazolo[1,5-α]pyrimidin-3-yl]carbonyl]-3-methyl-1-piperazinyl]ethyl]-] | < 1000 | < 1000
8 | COc1ccc(-c2nc3c(C(=O)N4CCN([C@@H](C)c5ccccc5C#N)C[C@H]4C)cnn3c(C(F)(F)F)c2C)cc1 [benzonitrile, 2-[(1S)-1-[(3R)-4-[[5-(4-methoxyphenyl)-6-methyl-7-(trifluoromethyl)pyrazolo[1,5-α]pyrimidin-3-yl]carbonyl]-3-methyl-1-piperazinyl]ethyl]-] | < 1000 | < 1000
9 | COc1ccc(-c2nc3c(C(=O)N4CCN(C(CO)c5cccc(C#N)c5)C[C@H]4C)cnn3c(C(F)(F)F)c2C)cc1 (stereo partly drawn) [benzonitrile, 3-[2-hydroxy-1-[(3R)-4-[[5-(4-methoxyphenyl)-6-methyl-7-(trifluoromethyl)pyrazolo[1,5-α]pyrimidin-3-yl]carbonyl]-3-methyl-1-piperazinyl]ethyl]-] | < 1000 | < 1000
10 | COc1ccc(-c2nc3c(C(=O)N4CCN([C@@H](C)c5ccc(C#N)cc5)C[C@H]4C)cnn3c(C(F)(F)F)c2C)cc1 [benzonitrile, 4-[(1S)-1-[(3R)-4-[[5-(4-methoxyphenyl)-6-methyl-7-(trifluoromethyl)pyrazolo[1,5-α]pyrimidin-3-yl]carbonyl]-3-methyl-1-piperazinyl]ethyl]-] | 1100 to 10000 | < 1000
11 | COc1ccc(-c2nc3c(C(=O)N4CCN(C(CO)c5cccc(NC(=O)OC(C)(C)C)c5)C[C@H]4C)cnn3c(C(F)(F)F)c2C)cc1 (stereo partly drawn) [carbamic acid, N-[3-[2-hydroxy-1-[(3R)-4-[[5-(4-methoxyphenyl)-6-methyl-7-(trifluoromethyl)pyrazolo[1,5-α]pyrimidin-3-yl]carbonyl]-3-methyl-1-piperazinyl]ethyl]phenyl]-, 1,1-dimethylethyl ester] | 1100 to 10000 | 1100 to 10000
12 | COc1ccc(-c2nc3c(C(=O)N4CCN([C@@H](C)c5cccc(NC(=O)OC(C)(C)C)c5)C[C@H]4C)cnn3c(C(F)(F)F)c2C)cc1 [carbamic acid, N-[3-[(1S)-1-[(3R)-4-[[5-(4-methoxyphenyl)-6-methyl-7-(trifluoromethyl)pyrazolo[1,5-α]pyrimidin-3-yl]carbonyl]-3-methyl-1-piperazinyl]ethyl]phenyl]-, 1,1-dimethylethyl ester] | 1100 to 10000 | > 10100
13 | COc1ccc(-c2nc3c(C(=O)N4CCN([C@@H](C)c5ccc(NC(=O)OC(C)(C)C)cc5)C[C@H]4C)cnn3c(C(F)(F)F)c2C)cc1 [carbamic acid, N-[4-[(1S)-1-[(3R)-4-[[5-(4-methoxyphenyl)-6-methyl-7-(trifluoromethyl)pyrazolo[1,5-α]pyrimidin-3-yl]carbonyl]-3-methyl-1-piperazinyl]ethyl]phenyl]-, 1,1-dimethylethyl ester] | > 10100 | < 1000
14 | COc1ccc(-c2nc3c(C(=O)N4CCN(C(CO)c5ccccc5NC(=O)C5CC5)C[C@H]4C)cnn3c(C(F)(F)F)c2C)cc1 (stereo partly drawn) [cyclopropanecarboxamide, N-[2-[2-hydroxy-1-[(3R)-4-[[5-(4-methoxyphenyl)-6-methyl-7-(trifluoromethyl)pyrazolo[1,5-α]pyrimidin-3-yl]carbonyl]-3-methyl-1-piperazinyl]ethyl]phenyl]-] | > 10100 | > 10100
15 | COc1ccc(-c2nc3c(C(=O)N4CCN(C(CO)c5cccc(NC(=O)C6CC6)c5)C[C@H]4C)cnn3c(C(F)(F)F)c2C)cc1 (stereo partly drawn) [cyclopropanecarboxamide, N-[3-[2-hydroxy-1-[(3R)-4-[[5-(4-methoxyphenyl)-6-methyl-7-(trifluoromethyl)pyrazolo[1,5-α]pyrimidin-3-yl]carbonyl]-3-methyl-1-piperazinyl]ethyl]phenyl]-] | < 1000 | < 1000
16 | COc1ccc(-c2nc3c(C(=O)N4CCN([C@@H](CO)c5ccccc5)C[C@H]4C)cnn3c(C(F)(F)F)c2C)cc1 [drawing 184, methanone, [(2R)-4-[(1R)-2-hydroxy-1-phenylethyl]-2-methyl-1-piperazinyl][5-(4-methoxyphenyl)-7-(trifluoromethyl)pyrazolo[1,5-α]pyrimidin-3-yl]-] | < 1000 | < 1000
